Measurements from patent publication US6518262B1, “22R-hydroxycholesta-8, 14-diene derivatives for the inhibition of meiosis” (Akzo Nobel N.V., priority 1999, dated 2003).

What was measured:
[1] = test system: denuded oocytes (DO); assay: Oocyte assay, agonistic testing, denuded oocytes (DO assay); format: cell-based, mice (B6D2-F1, strain C57BL×DBA); conditions: compound 5 μM, hypoxanthine medium, 22 hours culture, control value in brackets
Text: (§1) Oocytes arrested in meiosis contain diffused chromosomes which are surrounded by an intact nuclear envelope known as the germinal vesicle (GV). Upon reinitiation of meiosis by the midcycle gonadotropin surge, the chromosomes recondense and the GV breaks down (GVBD). In vivo, the oocyte is exposed to hypoxanthine (HX), which maintains the oocyte arrested in the meiotic prophase. This meiotic arrest can be mimicked in vitro by addition of hypoxanthine to the culture medium. The agonistic activity of meiosis activating substances is measured as the ability to overcome the hypoxanthine maintained meiotic arrest in denuded oocytes (DO) or cumulus enclosed oocytes (CEO), i.e. as the ability to induce meiotic resumption in vitro.
(§2) Ovaries are obtained from immature female mice (B6D2-F1, strain C57BL×DBA). At the age of 19, 20 or 21 days the mice are injected subcutaneously with a single dose of 20 IU follicle stimulating hormone (Humegon, Organon, The Netherlands) in saline.
Forty-eight hours after follicle stimulating hormone injection mice are killed by cervical dislocation. The ovaries are removed, freed of extraneous tissue and placed in a multidish containing 0.5 ml preparation medium at 37° C. L-15 Leibovitz medium (Gibco, pH 7.3±0.1) supplemented with bovine serum albumin (3 mg·ml^−1), L-glutamine (0.23 mM), sodium pyruvate (2 mM) and hypoxanthine (4 mM) is used as preparation medium. The antral follicles of the ovaries are punctured under a dissecting microscope using two 27-gauge needles attached to two 1 ml syringes. Cumulus enclosed oocytes (CEO) of uniform size are selected with a mouth-controlled pipette and rinsed in 0.5 ml fresh preparation medium. About 20 CEO are obtained from one ovary.
Oocytes freed from cumulus cells, i.e. denuded oocytes (DO), are obtained by gently flushing CEO through a fine-bore mouth-controlled pipette. DO were collected in fresh MEM alpha medium, containing bovine serum albumin (3 mg·ml^−1), L-glutamine (0.23 mM), sodium pyruvate (2 mM) and hypoxanthine (4 mM), and washed twice before transfer to the test medium.
(§3) The oocyte assay is performed in 3 blocks, each block represents the ovaries of one mouse (randomized block design). […] At t=0 the number of oocytes with intact germinal vesicles (GV) or germinal vesicle break-down (GVBD) is counted under an inverted microscope with differential interference contrast equipment. […] At the end of the culture period the number of oocytes with GV or GVBD per group is counted. For statistical analysis the percentage germinal vesicle breakdown is calculated for each group in one block. These percentages are subjected to arcsin transformation, and differences between control and test compounds are analyzed by an ANOVA test for a randomized block design. […]

[2] = test system: cumulus enclosed oocytes (CEO); assay: Oocyte assay, agonistic testing, cumulus enclosed oocytes (CEO assay); format: cell-based, mice (B6D2-F1, strain C57BL×DBA); conditions: compound 5 μM, hypoxanthine medium, 22 hours culture, control value in brackets
Text: as §1, §2
Forty-eight hours after follicle stimulating hormone injection mice are killed by cervical dislocation. The ovaries are removed, freed of extraneous tissue and placed in a multidish containing 0.5 ml preparation medium at 37° C. L-15 Leibovitz medium (Gibco, pH 7.3±0.1) supplemented with bovine serum albumin (3 mg·ml^−1), L-glutamine (0.23 mM), sodium pyruvate (2 mM) and hypoxanthine (4 mM) is used as preparation medium. […]
as §3

| SMILES | % GVBD DO assay exp. [1] | % GVBD CEO assay exp. [2] |
| --- | --- | --- |
| CC(C)CC[C@@H](O)[C@@H](C)[C@H]1CC=C2C3=C(CC[C@@]21C)[C@@]1(C)CC[C@H](O)C(C)(C)[C@@H]1CC3 [Example 1, (3β,5α,20S,22R)-4,4-Dimethylcholesta-8,14-diene-3,22-diol] | 0(0) % |  |
| CC(C)=CC[C@@H](O)[C@@H](C)[C@H]1CC=C2C3=C(CC[C@@]21C)[C@@]1(C)CC[C@H](O)C(C)(C)[C@@H]1CC3 [Example 2, (3β,5α,20S,22R)-4,4-Dimethylcholesta-8,14,24-triene-3,22-diol] | 3(3) % | 2(2) % |
